From patent US4656190A, “Indene derivatives and their use as PAF-antagonists” (Merck & Co., Inc., priority 1983, dated 1987)
Where two headings read alike, the source gives them in different places.

Assays:
[1] = test system: PAF-induced cutaneous vascular permeability; assay: In vivo assay: inhibition of PAF-induced increase of cutaneous vasopermeability in guinea pigs after oral dosing; settings: guinea pig
Description: The specific PAF-antagonistic activities are further established by in vivo assays following the protocol (modified procedure of Humphrey et al., Lab. Investigation, 46, 422 (1982)) described below:
Protocol for the Evaluation of the Oral Activity of
PAF Antagonists or the Inhibition of PAF-Induced
Increase of Vasopermeability by PAF-Antagonists
I. Animal species: 5 guinea pigs (400-500 g)
(4.) Ground and suspend a PAF antagonist of formula
(I) with intensive sonication in 3 ml of 0.5%
aqueous methylcellulose solution.
(5.) Administer orally to each of the animals T1,
T2, T3 and T4 an appropriate amount (in
terms of mg/kg of bodyweight) of the antagonist
solution from 4), except the control animal
(6.) Forty minutes after the oral administration,
(7.) After 20 minutes or when the anesthetics became
effective, inject intracardially to each animal
and inject intracutaneously, in duplicate 0.1
ml of a PAF solution in Tris-buffer or 0.1 ml
of the Tris-buffer itself (control) according
(9.) Wait for 30 minutes or until the blue color
(13.) In the meantime, extract a 100 μl sample of
(15.) Measure the absorbance of each supernatant from
Palo Alto, CA). Calculate the amount of Evans
blue in each skin sample in terms of the volume
(μl) of the exuded blood plasma according to
the following equation: […]
(16.) Draw a plasma exudation curve
(17.) Calculate the percent inhibition of PAF-induced
cutaneous vascular permeability from measuring
the area under the plasma exudation curve of
the control animal (AC) and that of an
animal treated orally with an antagonist
(AD), for example T1, according to the […]

[2] = molecular target: T1, PAF specific receptor binding site on rabbit platelet plasma membranes (Oryctolagus cuniculus, UniProt G1TEI7); assay: Inhibition of 3H-PAF binding to rabbit platelet plasma membranes; settings: read-out: % Inhibition of PAF Binding
T1 construct: from tissue; host or cells: rabbit platelets (plasma membrane suspension)
Description: In vitro, they inhibit PAF-induced functions in both the cellular and tissue levels by disturbing the PAF binding to its specific receptor site. The ability of a compound of formula (I) to inhibit the PAF binding to its specific receptor binding site on rabbit platelet plasma membranes was measured by an assay recently developed by us.
The inhibition of H^3 -PAF binding to the rabbit platelet plasma membrane by a PAF-antagonist of Formula (I) was determined by a method employing isotropic labeling and filtration techniques. Generally, a series of Tris-buffered solutions of the selected antagonist at predetermined concentrations were prepared. Each of these solutions contains 1 pmole of ^3 H-PAF, a known amount of the test antagonist, and a sufficient amount of the pH 7.5 Tris-buffer solution (10 mM Tris, 0.25% bovine serum albumin, and 150 mM NaCl per ml water) to make the final volume of 1 ml. After adding into a set of test tubes each with 100 μg of the platelet plasma membrane suspension (S. B. Hwang, et al., Biochemistry, 22, 4756 (1983)) and one of the Tris-buffer solutions described above, the resulting mixture in each test tube was incubated at 0° C. for about one hour or until the reaction was complete. Two control samples, one of which (C1) contains all the ingredients described above except the antagonist and the other (C2) contains C1 plus a 1000-fold excess of unlabeled PAF, were also prepared and incubated simultaneously with the test samples. After the incubation was completed, the contents of each test tube were filtered under vacuo through a Whatman GF/C fiberglass filter and the residue washed rapidly several times with a total of 20 ml cold (0°-5° C.) Tris-buffer solution. Each washed residue was then suspended in 10 ml scintillation solution (Aquasol 2, New England Nuclear, Connecticut) and the radioactivity was counted in a Packard Tri-Carb 460CD Liquid Scintillation System. Defining the counts from a test sample as "Total binding with antagonist"; the counts from the control sample C1, as "Total binding C1 "; and the counts from the control sample C2 as "non-specific binding C2 ", the percent inhibition of each test antagonist can be determined by the following equation: [formula]

[3] = Table 1, E (trans), dose 0.1 μM
[4] = Table 1, E (trans), dose 0.5 μM

T1 sequence (G1TEI7 1-342): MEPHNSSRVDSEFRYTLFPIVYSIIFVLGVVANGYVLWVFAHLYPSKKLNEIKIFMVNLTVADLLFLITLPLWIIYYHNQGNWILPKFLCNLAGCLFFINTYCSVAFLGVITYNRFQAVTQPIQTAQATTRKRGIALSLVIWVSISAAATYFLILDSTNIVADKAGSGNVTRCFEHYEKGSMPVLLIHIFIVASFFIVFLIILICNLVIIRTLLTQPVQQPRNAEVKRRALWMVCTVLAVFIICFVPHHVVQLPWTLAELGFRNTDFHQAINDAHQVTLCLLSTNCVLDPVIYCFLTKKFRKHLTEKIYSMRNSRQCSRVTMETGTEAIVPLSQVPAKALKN

| SMILES | % In Vivo Inhibition of PAF Receptor ([1]; 10 mg/kg) [%] | % In Vivo Inhibition of PAF Receptor ([1]; 20 mg/kg) [%] | % In Vivo Inhibition of PAF Receptor ([1]; 30 mg/kg) [%] | inhibition at 0.05 µM [2] [%] | inhibition at 0.1 µM [2] [%] | inhibition at 0.25 µM [2] [%] | inhibition at 0.5 µM [2] [%] | inhibition at 1 µM [2] [%] | inhibition at 2.5 µM [2] [%] | inhibition at 5 µM [2] [%] | inhibition at 0.1 µM [2, 3] [%] | inhibition at 0.5 µM [2, 4] [%] | inhibition at 1 µM ([2]; Table 1, E (trans), dose 1 μM) [%] | inhibition at 5 µM ([2]; Table 1, E (trans), dose 5 μM) [%] | % In Vivo Inhibition of PAF Receptor ([1]; 50 mg/kg) [%] |
| --- | --- | --- | --- | --- | --- | --- | --- | --- | --- | --- | --- | --- | --- | --- | --- |
| COCCC1=C(C)/C(=C\c2ccc(S(N)(=O)=O)cc2)c2ccc(OC)cc21 [E CH2CH2OCH3 / SO2NH2 / OCH3, E 1-(4-aminosulfonylphenyl)methylene-5-methoxy-2-methyl-1H-3-indenyl-(2-methoxy)ethane] | 28 | 60 | 67 | 20 | 40 | 58 | 76 | 80 | 100 | 100 | – | – | – | – | – |
| COc1ccc2c(c1)C(CCSC)=C(C)/C2=C\c1ccc(S(N)(=O)=O)cc1 [E CH2CH2SCH3 / SO2NH2 / OCH3, E 1-(4-aminosulfonylphenyl)methylene-5-methoxy-2-methyl-1H-3-indenyl-(2-methylthio)ethane] | 30 | 46 | – | – | – | – | – | – | – | – | 34 | 78 | 100 | – | – |
| COc1ccc2c(c1)C(CCS(C)(=O)=O)=C(C)/C2=C\c1ccc(S(N)(=O)=O)cc1 [E CH2CH2SO2CH3 / SO2NH2 / OCH3, E 1-(4-aminosulfonylphenyl)methylene-5-methoxy-2-methyl-1H-3-indenyl-(2-methylsulfonyl)ethane] | 9 | 45 | – | – | – | – | – | – | – | – | 35 | 61 | 81 | 100 | – |
| COC(=O)CC1=C(C)/C(=C\c2ccc(S(N)(=O)=O)cc2)c2ccc(OC)cc21 [E CH2COOCH3 / SO2NH2 / OCH3, E methyl 1-(4-aminosulfonylphenyl)methylene-5-methoxy-2-methyl-1H-3-indenylacetate] | – | – | – | – | – | – | – | – | – | – | 35 | 70 | 84 | 100 | 0 |
